The source of these data is US6495588B2, “Scytonemin and methods of using thereof” (The Regents of the University of California, priority 2000, dated 2002).

For the assay, the target named is T1, GST-Tie2 (Homo sapiens, UniProt Q02763).
T1 construct: Each reaction comprised 5 μg GST-Tie2 (intracellular kinase domain); made in house; host or cells: baculovirus (pAcG1 vector)
Put plainly: GST-Tie kinase activity assay. It is filed as biochemical. How it is done:
To determine the effect of SCY on GST-Tie kinase activity, the following assay was conducted. Clones for the Tie2 receptor were obtained and submitted for confirmatory sequence analysis. Similar to the method described by Huang et al. (1995) Oncogene 11:2097-2103, which is herein incorporated by reference, GST fusion constructs using the human Tie kinase domains and the commercially available pAcG1 vector (Pharmigen, San Diego, Calif.) were constructed. […] The desired restriction fragment was recovered from a partial Tie2 cDNA clone and then subcloned directly into the EcoRI site of the commercially pAcG1 expression vector. These final constructs were transfected into the baculovirus and GST-Tie2 kinase was semipurified using a glutathione affinity column to greater than about 90% purity, as determined via SDS-PAGE analysis and Coomassie Blue staining.
The kinase assay is carried out in 96 well flashplates and in the same kinase buffer used in the PLK1 kinase assays. Each reaction comprised 5 μg GST-Tie2 (intracellular kinase domain), 1 μCi [^33P]-γATP, 30 μM cold ATP in 60 μl. Compounds were in DMSO to give a final concentration of 1% DMSO. The reaction was incubated for 2 hours at 30° C. and terminated by washing the plate five times with 10 μM cold ATP. Reactions were quantitated by using a Packard Top-Count.

T1 sequence (Q02763 824-1096 limits assumed): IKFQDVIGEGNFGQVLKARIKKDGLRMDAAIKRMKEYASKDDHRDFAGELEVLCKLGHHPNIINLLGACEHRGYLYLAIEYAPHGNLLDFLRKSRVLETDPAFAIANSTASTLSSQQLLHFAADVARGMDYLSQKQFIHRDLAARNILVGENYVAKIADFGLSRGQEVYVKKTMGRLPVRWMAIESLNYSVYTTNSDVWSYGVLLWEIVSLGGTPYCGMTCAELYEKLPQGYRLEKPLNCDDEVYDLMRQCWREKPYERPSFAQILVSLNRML

Take scytonemin: the IC50 (as a rule, the midpoint of a concentration-inhibition curve) is > 10 µM. Further, the “concentration at which GST-Tie2 activity is significantly affected or inhibited” value (30 μM cold ATP) was ≥ 10 µM.
